Data on three compounds can be found in patent publication EP2736507B1, “BASIC ALPHA LIPOIC ACID SOLUTION AND ITS USES” (ITAPHARMA S.R.L., priority 2011, dated 2013).

Data set [1] has as its system HepG2 cells. Description: Cell vitality (ATP lite kit). In kind it is cell-based, human. To be noted: for Vitality %): [conc.]final 1.0 mM, HepG2, 72-hour (3x24 hr) treatment, control = 100. The method, then:
In order to analyse the effects of the solution of the invention, alpha lipoic acid contained therein was digested in artificial gastric juice and subsequently administered in the culture medium at the final concentration of 0.5 or 1mM. The cell vitality effects recorded were compared with those achieved in a parallel control experiment wherein alpha lipoic acid dissolved in a solvent of election for cell studies, i.e. DMSO (but not digested in gastric juice) was used. […]

For a further data set, the system named is SK-N-SH cell cultures. As to the kind of experiment: ROS induced from H2O2 in cell cultures. In kind it is cell-based, human. To be noted: for Ros (% compared to ctrl) 24h: 24h pre-treatment, then 2 hours 1.5mM mM H2O2; for Ros (% compared to ctrl) 48h: 48h pre-treatment, then H2O2. The protocol: Another important function ascribable to lipoic acid is that of contrasting the formation of reactive species of oxygen induced from H2O2. […] A further aim was to verify whether R-alpha lipoic acid retained this function also in an aqueous solution. For this reason, increasing doses of the same, coming from the above-used solution of the invention and subjected to digestion in artificial gastric juice, were added to the culture medium for different intervals of time (24 hr and 48 hr) before inducing an oxidative stress with H2O2. The same reaction was performed as a control, by using the R-alphaLA prepared in DMSO, but dissolved directly in medium to obtain the same working concentrations.
In Table 10, the values of ROS are reported as % with respect to those observed in the controls after 24 hours of maintenance in the culture and 2 hours of treatment with 1.5mM mM H2O2. In the first box of the Table, the results are shown as obtained after administration of R-alphaLA prepared in DMSO and then diluted directly in the medium to obtain the reference final concentrations; in the second box, on the other hand, R-alphaLA was first dissolved in the solution of the invention, subsequently digested in gastric juice and finally diluted in the medium. As summarised in Table 10, in each case, a dose-dependent response of alpha lipoic acid in preventing the formation of the ROS was observed over the first 24 hours.

The subject of data set [2] is HepG2 cells. As to the kind of experiment: Glucose in the medium, insulin-resistant diabetes cellular model (Glucose assay kit). In kind it is cell-based, human. To be noted: 1 mM for 48 hr; HepG2 in medium enriched with glucose 30mM; reference control = 100%. The method, then: Lastly, the hypoglycaemia-inducing action of the lipoic acid formulated in aqueous solution of the invention was also evaluated, by utilising an insulin-resistant diabetes cellular model. HepG2 cells cultivated in a medium enriched with glucose and free of insulin mimicked certain conditions present in the hepatocytes of diabetic patients; in addition, certain functions of the culture medium, considered as a container of nutritional substances and an accumulation container for those substances excreted, could be compared to plasma circulation. […]
Table 11 reports some of the most significant results achieved by using the Sigma Aldrich Glucose assay kit to determine the glucose; more specifically, the values obtained from the culture medium following administration for 48 hr of lipoic acid (1mM) prepared in DMSO or formulated in aqueous solution at 30 % of propylene glycol, in accordance with the present invention. The most significant decrease in glucose was in fact observed with the R-enantiomer of alpha lipoic acid in the solution of the invention.

The conditions of data set [3]: humans, oral route, 600 mg, various formulations; cited from earlier work.

For `O=C(O)CCCCC1CCSS1` (racemic) [(RS) alphaLA (in DMSO), alpha lipoic acid], the “Vitality %)” value with HepG2 cells [1] was 35.48%.

For the compound `O=C(O)CCCC[C@@H]1CCSS1` [(R) alphaLA (in DMSO), alpha-R-lipoic acid], in the data set on SK-N-SH cell cultures (100µM), the “Ros (% compared to ctrl) 24h” value is recorded as 77.87% and the “Ros (% compared to ctrl) 48h” value was found to be 99.26%. For the same compound, in the data set on SK-N-SH cell cultures (200µM), the “Ros (% compared to ctrl) 24h” value is listed as 49.18% and the “Ros (% compared to ctrl) 48h” value came to 103.98%. For the same compound, in the data set on HepG2 cells [1] (1mM, 48-hr treatment, dissolved in DMSO, HepG2, previous tests), the “cell vitality values compared to the control” value is given as “halved”. Besides, the “Vitality %)” value in the data set on HepG2 cells [1] is listed as 40.33%. Moreover, the “Glucose in the medium (%)” value with HepG2 cells [2] was found to be 89%.

For `O=C(O)CCCCC1CCSS1` (stereo not drawn) [lipoic acid, 1,2-dithiolane-3-pentanoic acid], the bioavailability entry in data set [3] is on record as “less than 30%”.
